Assay results: paper PMC3892729 (ACS Medicinal Chemistry Letters, 2013)
Entries after “also recorded” stand apart in the source; their conditions may differ.

How the values were obtained:
human β2 adrenoceptor [1] = target: T1, human β2 adrenoceptor (Homo sapiens, UniProt P07550); experiment: SPR binding to captured β2 adrenoceptor, MNG detergent; details: for loss in activity / reduction of affinity versus parent fragment: SPR KD, MNG, I and J versus A, L versus F
human β2 adrenoceptor [2] = target: T1, human β2 adrenoceptor; experiment: SPR binding to captured β2 adrenoceptor, DDM detergent; details: read-out: SPR ka

T1 sequence (P07550 whole entry, the tested form may be a part): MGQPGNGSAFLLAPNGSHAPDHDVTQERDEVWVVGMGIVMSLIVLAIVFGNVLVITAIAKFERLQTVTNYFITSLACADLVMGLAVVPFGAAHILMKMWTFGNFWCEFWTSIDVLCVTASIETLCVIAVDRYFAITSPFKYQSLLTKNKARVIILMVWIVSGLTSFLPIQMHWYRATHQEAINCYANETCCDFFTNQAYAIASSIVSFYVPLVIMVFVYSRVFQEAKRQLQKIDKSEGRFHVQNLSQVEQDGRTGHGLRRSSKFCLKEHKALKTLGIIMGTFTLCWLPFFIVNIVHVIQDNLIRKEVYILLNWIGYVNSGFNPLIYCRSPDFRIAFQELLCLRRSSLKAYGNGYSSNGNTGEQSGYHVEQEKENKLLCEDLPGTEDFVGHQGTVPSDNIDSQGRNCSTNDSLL

| loss in activity / reduction of affinity versus parent fragment (human β2 adrenoceptor [1]) [fold] | SMILES | other results |
| --- | --- | --- |
| 50 | Cc1ccc2nc(C(F)(F)F)cc(N3CCN(C)CC3)c2c1 [I] | – |
| 2000 | Cc1ccc2nc(C(F)(F)F)cc(N3CCC(F)(F)CC3)c2c1 [J] | – |
| – | Cc1ccc2nc(C(F)(F)F)cc(N3CCOCC3)c2c1 [K] | KD (result in words) (human β2 adrenoceptor [1]; MNG detergent): ablation of activity; also recorded: no binding |
| – | CC(Cc1ccc(O)cc1)NCC(O)c1cc(O)cc(O)c1 (centres unmarked) [fenoterol] | kon (human β2 adrenoceptor [2]): 545000 M⁻¹ s⁻¹ |

| SMILES | loss in activity / reduction of affinity versus parent fragment (human β2 adrenoceptor [1]) [fold] | other results |
| --- | --- | --- |
| c1cc(N2CCNCC2)ccn1 [L] | 400 | – |
